Experimental data reported in paper PMC8583417, “Evaluation of the Antimicrobial Efficacy of N-Acetyl-L-Cysteine, Rhamnolipids, and Usnic Acid—Novel Approaches to Fight Food-Borne Pathogens” (International Journal of Molecular Sciences, 2021).

What was measured:
[1] = test system: S. Infantis S59; assay: MIC for biofilm metabolic activity (MTT reduction assay); type: cell-based, Salmonella enterica Infantis; settings: for MICBM80: ≥80% inhibition, 24 h
Experimental: (§1) Ten concentrations of NAC, RLs, and UA were tested to determine the minimum inhibitory concentration for planktonic growth, and subsequently, the six highest concentrations were applied on preformed biofilms to evaluate the biofilm eradication ability of the compounds. MIC was defined as the lowest substance concentration able to inhibit at least 80% of microbial growth (MICPC80 for planktonic cells, MICBC80 for further growth of biofilm cells), inhibit 80% of metabolic activity (MICBM80 for biofilm metabolic activity, MICMPB80 for metabolic activity of preformed biofilm), prevent biofilm formation by at least 80% (MICBF80 for biofilm formation), or reduce a preformed biofilm by at least 80% (MICBR80 for biofilm reduction). The results of MICs are summarized in Table 1 (planktonic cells) and Table 2 (biofilm-associated cells).
(§2) The determination of MICs was performed according to Chlumsky et al.. Briefly, 96-well flat-bottomed microtiter plates were inoculated with 75 µL (for biofilm formation) or 100 µL (for preformed biofilm) of bacterial suspension (A625nm 0.08 to 0.1) in technical triplicates and were then carefully mixed with the dilution series of the test substances (24 h cultivation at 25 °C for S. Infantis, 37 °C for other strains) or were directly cultivated to preform biofilms (18 h). For a positive control of bacterial growth, the inoculum was mixed with a pure sterile medium. Furthermore, the sterile medium was included in the plate as a marker of potential microbial contamination. To evaluate planktonic cells growth (MICPC80) and further growth of biofilm cells (MICBC80), the optical density of the content of the microtiter plates was measured spectrophotometrically at 625 nm before and after 24 h (for biofilm formation) of cultivation or before and after additional 20 h incubation with the tested compound (for preformed biofilm). The difference of A625nm was considered as a measure of the ability of cells to grow in the presence of the tested substances. To evaluate the inhibition of biofilm formation (MICBF80) and reduction in preformed biofilms (MICBR80), biomass was quantified using crystal violet staining, and its metabolic activity (MICBM80 and MICMPB80) was estimated by using the MTT (thiazyl tetrazolium bromide, Sigma-Aldrich, USA) reduction assay, both measured spectrophotometrically at 595 nm.
(§3) All inhibitions were calculated using the formula of Chlumsky et al. below (Equation (1)):(1) A625(595)nm inhibition (%)=A625(595)nm (control) – A625(595)nm(natural substance)/A625(595)nm (control)× 100 where A625(595)nm (control) is the absorbance of bacterial suspension/biofilm itself, and A625(595)nm(natural substance) is the absorbance of the bacterial suspension/biofilm with the added natural substance (NAC, RLs, and UA).
(§4) When the minimum inhibitory concentration could not be determined, the MIC was established as >the highest tested concentration for NAC, RLs, and UA.

[2] = test system: S. Enteritidis ATCC 13076; assay: MIC for reduction of preformed biofilm (crystal violet staining); type: cell-based, Salmonella enterica Enteritidis; settings: for MICBR80: ≥80% reduction of preformed biofilm (18 h), 20 h with substance
Experimental: as §1
The determination of MICs was performed according to Chlumsky et al.. […] To evaluate planktonic cells growth (MICPC80) and further growth of biofilm cells (MICBC80), the optical density of the content of the microtiter plates was measured spectrophotometrically at 625 nm before and after 24 h (for biofilm formation) of cultivation or before and after additional 20 h incubation with the tested compound (for preformed biofilm). […] To evaluate the inhibition of biofilm formation (MICBF80) and reduction in preformed biofilms (MICBR80), biomass was quantified using crystal violet staining, and its metabolic activity (MICBM80 and MICMPB80) was estimated by using the MTT (thiazyl tetrazolium bromide, Sigma-Aldrich, USA) reduction assay, both measured spectrophotometrically at 595 nm.
All inhibitions were calculated using the formula of Chlumsky et al. below (Equation (1)):(1) A625(595)nm inhibition (%)=A625(595)nm (control) – A625(595)nm(natural substance)/A625(595)nm (control)× 100 where A625(595)nm (control) is the absorbance of bacterial suspension/biofilm itself, and A625(595)nm(natural substance) is the absorbance of the bacterial suspension/biofilm with the added natural substance (NAC, RLs, and UA). […]

[3] = test system: S. Infantis S13; assay: MIC for biofilm formation (crystal violet staining); type: cell-based, Salmonella enterica Infantis; settings: for MICBF80: ≥80% prevention, 24 h
Experimental: as §1, §2, §3, §4

[4] = test system: S. Infantis S59; assay: as above; type: cell-based, Salmonella enterica Infantis; settings: for MICBF80: ≥80% prevention, 24 h
Experimental: as §1, §2, §3, §4

[5] = test system: S. aureus 1241; assay: CLSM analysis, biofilm prevention; type: cell-based, Staphylococcus aureus; settings: for Thickness (µm) MICBM80 / Thickness (µm) subCBM80: 24 h exposure; for Thickness (µm) MICBM80: substance at its MICBM80, mean ± SD; for Thickness (µm) subCBM80: substance at subinhibitory concentration, mean ± SD
Experimental: Biofilm prevention and removal analyses were performed using previously determined minimum inhibitory and subinhibitory concentrations for metabolic activity (MICBM80, subCBM80; MICMPB80, subCMPB80) of NAC, RLs, and UA specific for each tested strain. Selected concentrations were used to evaluate the inhibition of biofilm formation (biofilm prevention) and the reduction in previously formed biofilms (biofilm removal) for the same set of microorganisms, with the exception of S. Infantis, which was excluded from the analysis due to its inability to form biofilm in the selected microtiter plate. Biofilm prevention and removal were observed using CLSM with specific staining to distinguish between live and membrane-compromised cells. Images were analyzed to evaluate (i). the total volume of the biomass, (ii). ratios of live and membrane-compromised cells, and (iii). to calculate biofilm volume reduction for individual organisms after the respective treatment types. The total biofilm volume was normalized by the area of the well and expressed as an average biofilm thickness. Complete data are provided in Supplementary Materials (Tables S1–S8).
For both inhibition and reduction of biofilms, overnight cultures from BHI were diluted in TSB + 1% Glc to reach an absorbance of 0.08 to 0.1 at 625 nm. The inoculum (150 µL) was transferred into wells of the 96-well flat-bottomed Ibidiμ-Plate (Ibidi, Gräfelfing, Germany) and mixed with 150 µL of each of the three tested substances in technical quadruplicates, followed by incubation at 37 °C for 24 h. Simultaneously, the prepared bacterial suspensions were inoculated to an additional microtiter plate (200 µL) and allowed to form biofilm overnight (18 h at 37 °C). After the incubation, the content of the well was drained off, and 200 µL of each of the three tested substances was added to the plate, which was then incubated for an additional 20 h. The used concentrations of the substances represented the subinhibitory and minimum inhibitory concentrations for metabolic activity (subCBM80, MICBM80; subCMPB80, MICMPB80). Both setups contained a positive control of the bacterial growth (inoculum mixed with sterile TSB + 1% Glc medium) and a control monitoring microbial contamination (sterile medium). Non-treated wells were used as a positive control for comparison between non-treated and treated biofilm mass.
Prior to the imaging, the wells were stained with the LIVE/DEAD® BacLight™ Bacterial Viability Kit (Thermo Fisher Scientific, MA, USA) following the manufacturer’s guidelines and Drago et al.. Briefly, equal volumes of SYTO® 9 and propidium iodide were combined with the sterile distilled water to reach a final concentration of […]. The biofilm mass was stained using 300 µL of the staining solution per well followed by incubation at 37 °C in the dark for 15 min. Stained wells were washed once with sterile distilled water, which was then added to each well (300 µL). Images were acquired with an inverted Leica SP5 CLSM using a 1.25× dry objective (WD 3.7 mm, Z-resolution 27 µm, up to 24 Z-stacks per well) to visualize an entire well. Samples were kept at the cultivation conditions (37 °C, 5% CO2, 90% humidity) with an OkoLabs stage top environmental chamber (Oko Labs, PA, USA). Fluorophore excitation lasers and emission bandwidths were as follows: SYTO® 9 (ex/em 485/498 nm) 488 nm excitation, 495 to 550 nm emission collection; propidium iodide (ex/em 535/617 nm) 561 nm excitation, 595 to 650 nm emission collection. The laser beam scanned the visual field at a frequency of 600 Hz. The wells were captured in snapshots of 1024 × 1024 pixels representing the area of 153.76 mm^2.
All collected images were statistically evaluated to quantify biovolume utilizing the surface estimation procedure described in Parker et al.. […]

Structure (SMILES)	maximal achieved inhibition (MICBM80 not reached) ([1]; within tested concentrations) [%]	MICBM80 [1] [µg/mL]	maximal achieved inhibition (MICBR80 not reached), biofilm reduction ([2]; preformed biofilm, within tested concentrations) [%]	MICBR80 [2]	maximal achieved inhibition (MICBF80 not reached) ([3]; within tested concentrations) [%]	MICBF80 [3]	maximal achieved inhibition (MICBF80 not reached) ([4]; within tested concentrations) [%]	MICBF80 [4] [µg/mL]	Thickness (µm) MICBM80 [5] [µm]	Thickness (µm) subCBM80 [5] [µm]	proportion of membrane-compromised cells ([5]; 24 h, MIC and subinhibitory concentration)
CC(=O)c1c(O)c(C)c(O)c2c1OC1=CC(=O)C(C(C)=O)C(=O)C12C (single isomer, unassigned; (+)) [UA, (+)-usnic acid]	47	> 31.3	0	> 31.3 µg/mL	45	> 31.3 µg/mL	34	> 31.3	367 ± 40.5	392 ± 21.7	–
CC(=O)N[C@@H](CS)C(=O)O [NAC, N-Acetyl-L-cysteine]	–	6250	–	12,500 µg/mL	–	12,500 µg/mL	–	6250	236 ± 50.5	212 ± 16.1	up to 25%
